Results reported in patent US6518287B2, “Substituted imidazoles as dual histamine H1 and H3 agonists or antagonists” (Schering Corporation, priority 2000, dated 2003).

Experiments:
[1] = biological target: T1, H3 receptors (Cavia porcellus, UniProt Q9JI35); assay: H3-Receptor Binding Assay (guinea pig brain membranes); details: HCl salt of the indicated compound, 3 nM [3H]R-α-methyl histamine or [3H]Nα-methyl histamine, read-out: H3 Ave Ki
T1 construct: The source of the H3 receptors in this experiment was guinea pig brain; from tissue; host or cells: guinea pig brain membranes
Procedure: General Procedure for H3-Receptor Binding Assay
The source of the H3 receptors in this experiment was guinea pig brain. The animals weighed 400-600 g. The brain tissue was homogenized with a solution of 50 mM Tris, pH 7.5. The final concentration of tissue in the homogenization buffer was 10% w/v. The homogenates were centrifuged at 1,000×g for 10 min. in order to remove clumps of tissue and debris. The resulting supernatants were then centrifuged at 50,000×g for 20 min. in order to sediment the membranes, which were next washed three times in homogenization buffer (50,000×g for 20 min. each). The membranes were frozen and stored at −70° C. until needed.
All compounds to be tested were dissolved in DMSO and then diluted into the binding buffer (50 mM Tris, pH 7.5) such that the final concentration was 2 μg/ml with 0.1% DMSO. Membranes were then added (400 μg of protein) to the reaction tubes. The reaction was started by the addition of 3 nM [^3H]R-α-methyl histamine (8.8 Ci/mmol) or 3 nM [^3H]N^α-methyl histamine (80 Ci/mmol) and continued under incubation at 30° C. for 30 min. Bound ligand was separated from unbound ligand by filtration, and the amount of radioactive ligand bound to the membranes was quantitated by liquid scintillation spectrometry.

[2] = biological target: T2, Histamine H1 receptor (Rattus norvegicus, UniProt P31390); assay: H1-Receptor Binding Assay (rat brain membranes, [3H]pyrilamine); details: HCl salt of the indicated compound, male Sprague-Dawley rat brain membranes, Cheng-Prusoff, read-out: H1 Ave Ki
T2 construct: The tissue source was male Sprague-Dawley rat brain; tissue Rockland Corporation, Gilbertsville, Pa; host or cells: male Sprague-Dawley rat brain membranes
Source text: General Procedure for H1-Receptor Binding Assay
The procedure used was based on that disclosed in V. T. Tran, R. S. L. Chang, and S. hr. Snyder, “Histamine H1 receptors identified in mammalian brain membranes with [H-3]mepyramine”, Proc. Natl. Acad. Sci. U.S.A 75 (1978) 6290-6294.
I. Tissue Preparation Protocol for Histamine H1 Receptor Binding Assay
1. The tissue source was male Sprague-Dawley rat brain. These were purchased stripped and frozen (available from Rockland Corporation, Gilbertsville, Pa.). The buffer used was ice-cold 50 mM Tris-HCl, pH 7.5. (The pH was determined at 25° C.)
2. The brains were spread out on plastic wrap on the benchtop and allowed to thaw for 10-15 min. After this, everything was kept ice-cold.
3. Two brains were put in each 50 mL round bottom centrifuge tube and 25 mL of buffer was added. Then they were broken up with a Polytron (from Brinkmann Instruments, Westbury, N.Y.) equipped with a PT-10 tip at setting 6 for 30 sec.
4. The volume in the tube was brought up to 45 mL and mixed and the particulate material was centrifuged at 1000×g (3000 rpm, SS-34 rotor) for 10 min to remove nuclei and unbroken cells.
5. Pellets were discarded and the supernatants were centrifuged 10 min at 50,000×g (20,000 rpm, SS-34 rotor).
6. The high-speed pellets were resuspended in a volume of Tris buffer equal to the original (4 mL), the contents of all tubes were pooled, and a sample was taken for BCA protein assay. The material was aliquotted, 45 mL per round-bottom tube, and the resuspension was recentrifuged. The yield of protein was approximately 20 mg/brain, so there was about 40 mg of protein per tube.
7. Pellets were frozen at −80° C.
II. H1 Histamine Receptor Binding Assay
1. FDCL and comparative compounds for assay were independently solubilized at 1 mg/ml DMSO by vortexing, or if necessary by sonication. The first dilution, 100-fold, was made in 50 mM Tris-HCl, pH 7.5, at room temperature. The three or four subsequent ten-fold serial dilutions were made in 1% DMSO/50 mM Tris-HCl, pH 7.5. Drug solutions and assay plates were kept at room temperature during the course of the assay set up.
2. Test compounds were assayed at four or five concentrations: 1, 0.1, 0.01, 0.001, and 0.0001 μg/ml. Twenty μl of drug solution was pipeted into each of three wells.
3. [^3H]Pyrilamine was diluted approximately 2000-fold with ice-cold […] Tris-HCl, pH 7.5 (to a working concentration of 20-25 nM), and put on ice.
4. A frozen tissue pellet was thawed in a 25° C. water bath, resuspended in 50 mM Tris-HCl, pH 7.5, at 1.7-2 mg/ml by brief break-up on the Polytron, and put on ice.
5. Twenty μl of diluted [^3H]pyrilamine was added to each well.
6. One hundred fifty μl of tissue suspension was added to each well.
7. The top of the plate was covered and it was placed in a 25° C. shaking water bath (about 60 oscillations/min) for 30 min.
8. Samples were filtered on a Tomtec Mach 2 harvester (available from Tomtec Corporation, Orange, Conn.) through a GF/B filter mat (from Wallac, Inc., Gaithersburg, Md.) presoaked in 0.3% polyethylenimine. Each sample was thrice washed with ice-cold 50 mM Tris-HCl, pH 7.5 dried 20 sec on the Tomtec, and dried 3-4 min in a microwave oven on a paper towel. The filter was impregnated with MELTILEX brand wax scintillant (from Wallac Corporation) and counted on a Betaplate scintillation counter (from Wallac Corporation).
9. Specific binding was determined as the difference between total and nonspecific binding. The percent inhibition in the presence of inhibitor or standard was determined using the formula:
[1-(sample binding-nonspecific binding)/specific binding]×100
For compounds that inhibit more than 50% at 1 μg/ml, an IC50 value was interpolated from proximate concentrations. […]

T1 sequence (Q9JI35 whole entry): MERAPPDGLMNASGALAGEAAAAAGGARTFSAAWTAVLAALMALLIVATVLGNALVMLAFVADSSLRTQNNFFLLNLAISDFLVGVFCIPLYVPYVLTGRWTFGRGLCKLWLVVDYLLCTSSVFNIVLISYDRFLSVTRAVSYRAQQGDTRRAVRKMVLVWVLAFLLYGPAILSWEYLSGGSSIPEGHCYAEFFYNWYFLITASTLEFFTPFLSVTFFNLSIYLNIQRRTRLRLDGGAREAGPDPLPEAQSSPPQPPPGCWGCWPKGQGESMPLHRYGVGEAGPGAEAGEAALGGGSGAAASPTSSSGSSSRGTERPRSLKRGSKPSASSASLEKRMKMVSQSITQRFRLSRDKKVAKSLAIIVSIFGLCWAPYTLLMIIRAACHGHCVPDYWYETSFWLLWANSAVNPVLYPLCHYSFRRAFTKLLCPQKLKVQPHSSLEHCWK
T2 sequence (P31390 whole entry): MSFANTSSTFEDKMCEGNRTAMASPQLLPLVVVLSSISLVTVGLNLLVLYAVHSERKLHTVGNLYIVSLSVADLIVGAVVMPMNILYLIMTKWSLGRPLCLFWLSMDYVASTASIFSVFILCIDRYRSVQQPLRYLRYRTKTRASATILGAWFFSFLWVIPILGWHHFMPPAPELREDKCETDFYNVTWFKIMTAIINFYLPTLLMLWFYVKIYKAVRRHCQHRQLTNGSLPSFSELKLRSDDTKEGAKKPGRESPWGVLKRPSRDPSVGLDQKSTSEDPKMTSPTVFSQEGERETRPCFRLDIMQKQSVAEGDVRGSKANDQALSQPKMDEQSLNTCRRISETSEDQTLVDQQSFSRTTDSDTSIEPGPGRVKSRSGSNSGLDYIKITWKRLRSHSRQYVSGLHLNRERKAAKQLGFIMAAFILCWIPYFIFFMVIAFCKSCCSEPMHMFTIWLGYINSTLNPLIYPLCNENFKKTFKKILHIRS

SMILES | Ki [1] [nM] | Ki [2] [nM]
O=C(NCCCCc1c[nH]cn1)C(c1ccc(Cl)cc1)c1ccc(Cl)cc1 | 33.5 | –
O=C(CC(c1ccc(Br)cc1)c1ccccn1)NCCCCc1c[nH]cn1 (stereo not shown) | 50 | –
C[N+](C)(CCCCc1c[nH]cn1)CCC(c1ccc(Cl)cc1)c1ccccn1 (stereo not shown) | 160 | 120
O=C(/C=C(\c1ccc(Cl)cc1)c1ccccn1)NCCc1c[nH]cn1 | 37 | –
O=C(NCCC(c1ccc(Cl)cc1)c1ccccn1)OCCc1c[nH]cn1 (stereo not shown) | 260 | –
Clc1ccc(C(CCNCCc2c[nH]cn2)c2ccccn2)cc1 (stereo not shown) | 56 | 600
CN(CCC(c1ccc(Cl)cc1)c1ccccn1)C(=O)CCc1c[nH]cn1 (stereo not shown) | 260 | 1000
Clc1ccc(C(CCNCCCc2c[nH]cn2)c2ccccn2)cc1 (stereo not shown) | 240 | –
CN(CCCc1c[nH]cn1)CCC(c1ccc(Cl)cc1)c1ccccn1 (stereo not shown) | 120 | 10
N=C(CCCc1c[nH]cn1)NCCC(c1ccc(Cl)cc1)c1ccccn1 (stereo not shown) | 29 | 201
O=C(CC(c1ccccc1)c1ccccc1)NCCCCc1c[nH]cn1 | 36 | –
O=C(CCc1c[nH]cn1)NCCC(c1ccc(Cl)cc1)c1ccccn1 (stereo not shown) | 510 | –
Clc1ccc(C(CCN(CCCCc2c[nH]cn2)CCCCc2c[nH]cn2)c2ccccn2)cc1 (stereo not shown) | 23 | 83.5

Molecules with a lower Ki [1], results first:

Ki [1] [nM] | Ki [2] [nM] | SMILES
15 | 7 | CN(CCCCc1c[nH]cn1)CCC(c1ccc(Cl)cc1)c1ccccn1 (stereo not shown)
8.5 | – | O=C(CC(c1ccc(Cl)cc1)c1cccc[n+]1[O-])NCCCCc1c[nH]cn1 (stereo not shown)
1 | – | CN(CCc1c[nH]cn1)C(=O)CC(c1ccc(Cl)cc1)c1ccccn1 (stereo not shown)
2 | – | Clc1ccc(C(NCCCCc2c[nH]cn2)c2ccc(Cl)cc2)cc1
16 | – | O=C(CC(c1ccc(Cl)cc1)c1ccccn1)NCCc1c[nH]cn1 (stereo not shown)
8 | – | N=C(CC(c1ccc(Cl)cc1)c1ccccn1)NCCc1c[nH]cn1 (stereo not shown)
0.8 | – | O=C(CC(c1ccc(Cl)cc1)c1ccccn1)NCCCCc1c[nH]cn1 (stereo not shown)
6 | – | Clc1ccc(C(NCCCCc2c[nH]cn2)c2ccccc2)cc1 (stereo not shown)
6.5 | – | CN(CCCCc1c[nH]cn1)C(=O)CC(c1ccc(Cl)cc1)c1ccccn1 (stereo not shown)
10 | 254 | Clc1ccc(C(CCNCCCCc2c[nH]cn2)c2ccccn2)cc1 (stereo not shown)
